Test results from patent US11147799B2, “Topical pharmaceutical composition containing phenytoin and a (co-) analgesic for the treatment of chronic pain” (Topical Innovations B.V., priority 2016, dated 2021).
“Also recorded” adds a separate entry of the source.

Legend:
neuropathic pain [1] = test: Earlier oral medication of the case patients (case histories); settings: case history of the individual patient
[2] = after oral administration; corresponding tissue; cited from earlier work
neuropathic pain [3] = settings: 21% for placebo; cited from earlier work

Compound | pain relieving effect of earlier oral medication (words) (neuropathic pain [1]) | side effects of earlier oral medication (neuropathic pain [1]) | further results
CN(C)CCC=C1c2ccccc2CCc2ccccc21 [Amitriptyline] | did not have any pain relieving effect |  | 
O=C(O)Cc1ccccc1Nc1c(Cl)cccc1Cl [diclofenac] |  |  | Cmax of diclofenac in muscles [2]: 1.16 µg/mL
NCC1(CC(=O)O)CCCCC1 [gabapentin] |  | too much side effects | patients who achieved 50% or more pain relief (neuropathic pain [3]): about 35%
CC(C)C[C@H](CN)CC(=O)O [pregabalin] | without sufficient pain reduction; also recorded: had a pain reducing effect | anxiety and depression; also recorded: too much side effects | pain relieving effect of earlier oral medication (words) (neuropathic pain [1]; listed as Pregabalin): did not have any effect
COc1ccc(C(CN(C)C)C2(O)CCCCC2)cc1 (centres unmarked) [venlafaxine] |  | induced nausea | 
